Reference: ChEMBL document CHEMBL1128944, “Potent cyclic urea HIV protease inhibitors with benzofused heterocycles as P2/P2 groups” (Bioorg Med Chem Lett, 1996)

What was measured:
[1] = target: Human immunodeficiency virus type 1 protease (Human immunodeficiency virus 1) (UniProt Q72874); test: Inhibitory activity against HIV-1 RF infected MT-2 cells; type: functional, cell-based; details: MT2
[2] = target: Human immunodeficiency virus type 1 protease (Human immunodeficiency virus 1, UniProt Q72874); test: Inhibitory activity was evaluated against HIV protease
[3] = Plasma Clearance was evaluated in rats, iv; type: ADME, organism-based; details: rat
[4] = Maximum concentration was evaluated in dog plasma; type: ADME, organism-based, Canis lupus familiaris
[5] = Half life period was evaluated in rats; type: ADME, organism-based; details: rat, in vivo
[6] = Half life period was evaluated in dog; type: ADME, organism-based, Canis lupus familiaris; details: in vivo
[7] = Clearance value was evaluated in dog plasma; type: ADME, organism-based, Canis lupus familiaris
[8] = Bioavailability was evaluated in dog; type: ADME, organism-based, Canis lupus familiaris; details: in vivo

Row | SMILES | IC90 [1] [nM] | Ki [2] [nM] | also measured
1 | Nc1nc2ccc(CN3C(=O)N(Cc4ccc5nc(N)sc5c4)[C@H](Cc4ccccc4)[C@H](O)[C@@H](O)[C@H]3Cc3ccccc3)cc2s1 | 270 | 5.7 | –
2 | O=C1N(Cc2ccc3[nH]c(O)nc3c2)[C@H](Cc2ccccc2)[C@H](O)[C@@H](O)[C@@H](Cc2ccccc2)N1Cc1ccc2[nH]c(O)nc2c1 | > 65000 | < 0.01 | –
3 | O=C1CNc2cc(CN3C(=O)N(Cc4ccc5c(c4)NCC(=O)N5)[C@H](Cc4ccccc4)[C@H](O)[C@@H](O)[C@H]3Cc3ccccc3)ccc2N1 | 7700 | 6.1 | –
4 | Nc1nc2cc(CN3C(=O)N(Cc4ccc5sc(N)nc5c4)[C@H](Cc4ccccc4)[C@H](O)[C@@H](O)[C@H]3Cc3ccccc3)ccc2s1 | 950 | 190 | –
5 | O=C1N(Cc2ccc3[nH]ccc3c2)[C@H](Cc2ccccc2)[C@H](O)[C@@H](O)[C@@H](Cc2ccccc2)N1Cc1ccc2[nH]ccc2c1 | 190 | 1.3 | –
6 | O=C1N(Cc2ccc(CO)cc2)[C@H](Cc2ccccc2)[C@H](O)[C@@H](O)[C@@H](Cc2ccccc2)N1Cc1ccc(CO)cc1 [DMP-323] | 100 | – | clearance [3]: 118 mL/min/kg
7 | O=C1N(Cc2ccc3oc(O)nc3c2)[C@H](Cc2ccccc2)[C@H](O)[C@@H](O)[C@@H](Cc2ccccc2)N1Cc1ccc2oc(O)nc2c1 | 579 | 3.9 | –
8 | Nc1nc2ccc(CN3C(=O)N(Cc4ccc5nc(N)oc5c4)[C@H](Cc4ccccc4)[C@H](O)[C@@H](O)[C@H]3Cc3ccccc3)cc2o1 | 84 | 0.2 | –
9 | O=C1N(Cc2ccc3c[nH]nc3c2)[C@H](Cc2ccccc2)[C@H](O)[C@@H](O)[C@@H](Cc2ccccc2)N1Cc1ccc2c[nH]nc2c1 | 49 | 0.018 | –
10 | O=C1N(Cc2ccc3nn[nH]c3c2)[C@H](Cc2ccccc2)[C@H](O)[C@@H](O)[C@@H](Cc2ccccc2)N1Cc1ccc2nn[nH]c2c1 | – | 0.09 | –
11 | O=C1N(Cc2ccc3nc(S)oc3c2)[C@H](Cc2ccccc2)[C@H](O)[C@@H](O)[C@@H](Cc2ccccc2)N1Cc1ccc2nc(S)oc2c1 | 5100 | 4.8 | –
12 | Nc1nc2cc(CN3C(=O)N(Cc4ccc5[nH]c(N)nc5c4)[C@H](Cc4ccccc4)[C@H](O)[C@@H](O)[C@H]3Cc3ccccc3)ccc2[nH]1 | 8100 | 5.8 | –
13 | O=C1N(Cc2ccc3ncoc3c2)[C@H](Cc2ccccc2)[C@H](O)[C@@H](O)[C@@H](Cc2ccccc2)N1Cc1ccc2ncoc2c1 | 440 | 3.4 | –
14 | O=C1N(Cc2ccc3scnc3c2)[C@H](Cc2ccccc2)[C@H](O)[C@@H](O)[C@@H](Cc2ccccc2)N1Cc1ccc2scnc2c1 | 3200 | 28 | –
15 | O=C1N(Cc2ccc3nc(O)sc3c2)[C@H](Cc2ccccc2)[C@H](O)[C@@H](O)[C@@H](Cc2ccccc2)N1Cc1ccc2nc(O)sc2c1 | 109 | 0.91 | –
16 | O=C1N(Cc2ccc3[nH]ncc3c2)[C@H](Cc2ccccc2)[C@H](O)[C@@H](O)[C@@H](Cc2ccccc2)N1Cc1ccc2[nH]ncc2c1 | 8 | 0.018 | Cmax [4]: 600 ng/mL; clearance [3]: 3.33 mL/min/kg; half-life [5]: 2.7 h; half-life [6]: 2 h; clearance [7]: 18.3 mL/min/kg; bioavailability [8]: 13%
17 | O=C1Cc2cc(CN3C(=O)N(Cc4ccc5c(c4)CC(=O)N5)[C@H](Cc4ccccc4)[C@H](O)[C@@H](O)[C@H]3Cc3ccccc3)ccc2N1 | 370 | 0.14 | –
18 | O=C1N(Cc2ccc3nc(O)oc3c2)[C@H](Cc2ccccc2)[C@H](O)[C@@H](O)[C@@H](Cc2ccccc2)N1Cc1ccc2nc(O)oc2c1 | 40 | 0.18 | –
19 | O=C1N(Cc2ccc3c(c2)NS(=O)(=O)N3)[C@H](Cc2ccccc2)[C@H](O)[C@@H](O)[C@@H](Cc2ccccc2)N1Cc1ccc2c(c1)NS(=O)(=O)N2 | 32000 | 0.19 | –
20 | O=C1N(Cc2ccc3[nH]nnc3c2)[C@H](Cc2ccccc2)[C@H](O)[C@@H](O)[C@@H](Cc2ccccc2)N1Cc1ccc2[nH]nnc2c1 | 530 | – | –
21 | O=C1N(Cc2ccc3nc(O)cnc3c2)[C@H](Cc2ccccc2)[C@H](O)[C@@H](O)[C@@H](Cc2ccccc2)N1Cc1ccc2nc(O)cnc2c1 | 7800 | 490 | –
22 | O=C1N(Cc2ccc3[nH]cnc3c2)[C@H](Cc2ccccc2)[C@H](O)[C@@H](O)[C@@H](Cc2ccccc2)N1Cc1ccc2[nH]cnc2c1 | 19000 | 11 | –
23 | O=C1N(Cc2ccc3sc(O)nc3c2)[C@H](Cc2ccccc2)[C@H](O)[C@@H](O)[C@@H](Cc2ccccc2)N1Cc1ccc2sc(O)nc2c1 | – | 130 | –
24 | O=C1Nc2ccc(CN3C(=O)N(Cc4ccc5c(c4)C(=O)C(=O)N5)[C@H](Cc4ccccc4)[C@H](O)[C@@H](O)[C@H]3Cc3ccccc3)cc2C1=O | 8500 | 0.81 | –
